From US9034929B2, “Aminoalcohol and biocide compositions for aqueous based systems” (ANGUS Chemical Company, priority 2007, dated 2015)

How the values were obtained:
[1] = test system: bacteria of a mixed bacterial/fungal inoculum isolated from spoiled metalworking fluids; test: ASTM Practice E 2275-03 microbial challenge test of diluted metalworking fluids, bacterial counts; format: cell-based; conditions: for bacterial growth / resistance to bacterial attack: 8% amino alcohol fluid with benzisothiazolinone (BIT), 0.012% active in diluted fluid, FIG. 5
Method: (§1) This compound was formulated at 8% by weight into a generic semi-synthetic metalworking fluid concentrate as described in Table 1. Identical formulations were prepared except substituting conventional amino alcohol compounds for 3A4O. The conventional amino alcohols were 2-amino-2-methyl-1-propanol (AMP) and n-butylethanolamine (BEA). An identical set of fluid concentrates was prepared including 1.5% of a 77% aqueous solution of 1,3,5-tris(2-hydroxyethyl)-s-triazine preservative, allowing us to evaluate fluids with and without preservative. The fluid concentrates were diluted at a rate of 20 parts Chicago tap water to 1 part fluid concentrate (by weight); the active amino alcohol concentration at dilution was therefore approximately 0.4% and the active preservative dosage (in the preserved set) was approximately 0.058%. These fluids were subjected to microbial challenge testing by ASTM Practice E 2275-03. In this method fluids are inoculated initially and then weekly with a mixed bacterial/fungal inoculum isolated from spoiled metalworking fluids. The bacterial and fungal counts are measured weekly using a serial dilution plate count method, and reported as colony forming units per milliliter (CFU/mL). The lower the CFU/mL the better the microbial control, and the longer the predicted service life of the fluid. The microbial results are described in FIGS. 1 & 2 (unpreserved) and FIGS. 3 & 4 (preserved with triazine).
(§2) This material was formulated into the same metalworking fluid concentrate described in Example A, at an 8% concentration. Identical fluids were prepared using 8% 2-amino-2-methyl-1-propanol (AMP) and 8% dicyclohexylamine (DCHA). The preservative benzisothiazolinone (BIOBAN BIT 20 DPG from Dow Biocides) was added to each fluid concentrate at 1.2%, giving an active concentration of 0.24% in the fluid concentrates and 0.012% in the use diluted fluids. The diluted fluids were subjected to the same microbial testing protocol described in Example A, and the results are described in FIGS. 5 & 6.
(§3) In order to understand the influence of use level of the amino alcohols of the invention, we prepared similar semi-synthetic fluid concentrates as described previously but using 4% amino alcohol to give 2000 ppm at use dilution; the difference in the formulation was made up with water. The fluid concentrates were preserved with the same level of triazine-77% described previously. These fluids were diluted and subjected to the same bacterial/fungal challenge tests described in Examples A and B; the data are found in FIGS. 8 & 9.
FIGS. 10-17 provide additional comparisons between 3-amino-4-octanol (3A4O), an aminoalcohol of the invention, and the non-invention aminoalcohol compounds 2-amino-2-methyl-1-propanol (AMP) and n-butylethanolamine (BEA), in conjunction with various biocides. In particular, FIGS. 10 and 11 bacterial and fungal efficacy comparisons of the aminoalcohols with BIOBAN P-1487 (a combination of 4-(2-nitrobutyl)-morpholine with 4,4′-(2-ethyl-2-nitrotrimethylene)dimorpholine). This biocide was added to give 750 ppm in the diluted fluid. The amine dosage was adjusted to give 4000 ppm at dilution. FIGS. 12 and 13 show bacterial and fungal efficacies of the aminoalcohols in the presence of a triazine/IPBC biocide blend. Triazine-78% was added at 750 ppm based on diluted fluid and iodopropynylbutylcarbamate (IPBC) added at 300 ppm active at dilution. The amine dosage was adjusted to give 3000 ppm at dilution. FIGS. 14 and 15 show bacterial and fungal efficacy of the compounds with Benzisothiazolinone (BIT). BIT was added at 120 ppm active based on diluted fluid and iodopropynylbutylcarbamate (IPBC) added at 300 ppm active at dilution. The amine dosage was adjusted to give 3000 ppm at dilution. FIGS. 16 and 17 show bacterial and fungal efficacy of the aminoalcohols with a chloromethylisothiazolinone/methylisothiazolinone (CMIT/MIT) blend. […]

[2] = test system: mycobacterium immunogenum (ATTCC strain 700505); test: ASTM microbial challenge test with mycobacterial inoculum; format: cell-based; conditions: 8% amino alcohol fluid with 1.5% triazine preservative (77% active) in concentrate; FIG. 7
[3] = test system: fungi of a mixed bacterial/fungal inoculum isolated from spoiled metalworking fluids; test: ASTM Practice E 2275-03 microbial challenge test of diluted metalworking fluids, fungal counts; format: cell-based
Method: as §1, §2
as §3, with “9. […]” for “9.”

[4] = test system: fungi of a mixed bacterial/fungal inoculum isolated from spoiled metalworking fluids; conditions: at the dosage used (about 0.058% active at dilution); cited from earlier work
pseudomonas aeroginosa = conditions: stated as known; cited from earlier work

With `CC(C)(N)CO` [AMP, 2-amino-2-methyl-1-propanol, reference compound] as the molecule, how does the “bacterial growth / resistance to bacterial attack” value [1] read?
Its value is “relatively poor performance against bacteria”.

And the “mycobacterial growth / resistance” value [2]?
Its value is “virtually no inhibition of activity”.

With `CCCCC(O)C(N)CC` (stereo not shown) [3A4O, 3-amino-4-octanol] as the molecule, how does the “bacterial growth (plate count, CFU/mL)” value ([1]; 8% amino alcohol fluid preserved with triazine (about 0.058% active at dilution), FIG. 3) read?
The value was “unexpected reduction in growth rate over the full course of the test”.

What about the “enhancement of biocide efficacy against bacteria” value ([1]; amine 3000-4000 ppm at dilution with BIOBAN P-1487, triazine/IPBC, BIT or CMIT/MIT, FIGS. 10, 12, 14, 16) of the same molecule?
Its value is “increased enhancement of biocide efficacy”.

And the “fungal growth (plate count, CFU/mL)” value ([3]; 8% amino alcohol fluid preserved with triazine (about 0.058% active at dilution), FIG. 4)?
Its value is “unexpected reduction in growth rate over the full course of the test”.

What about the “enhancement of biocide efficacy against fungi” value ([3]; amine 3000-4000 ppm at dilution with BIOBAN P-1487, triazine/IPBC, BIT or CMIT/MIT, FIGS. 11, 13, 15, 17) of the same molecule?
Its value is “greater enhancement against fungi”.

Which “efficacy of the preservative alone against fungi” value [4] does the source give for `OCCN1CN(CCO)CN(CCO)C1` [triazine preservative, 1,3,5-tris(2-hydroxyethyl)-s-triazine] here?
Its value is “not effective against fungi”.

With `C1CCC(NC2CCCCC2)CC1` [DCHA, dicyclohexylamine, reference compound] as the molecule, how does the “bacterial growth / resistance to bacterial attack” value [1] read?
The value was “the opposite is true”.

For `CCCCC(O)C(C)N` (stereo not shown) [2A3H, 2-amino-3-heptanol], which “bacterial growth / resistance to bacterial attack” value [1] is on record?
The value was “more resistant to bacterial attack than the others”.

And the “bacterial growth (plate count, CFU/mL)” value ([1]; unpreserved semi-synthetic MWF, 8% amino alcohol in concentrate (about 0.4% at dilution), weekly inoculation, FIG. 1)?
Its value is “does not significantly inhibit bacterial or fungal growth”.

What about the “fungal growth / resistance to fungal attack” value ([3]; 8% amino alcohol fluid with benzisothiazolinone (BIT), 0.012% active in diluted fluid, FIG. 6) of the same molecule?
Its value is “resists attack better than that with AMP, and is comparable in resistance to the fluid with DCHA”.

And the “fungal growth (plate count, CFU/mL)” value ([3]; unpreserved semi-synthetic MWF, 8% amino alcohol in concentrate (about 0.4% at dilution), weekly inoculation, FIG. 2)?
Its value is “does not significantly inhibit bacterial or fungal growth”.

For `O=c1[nH]sc2ccccc12` [BIT, benzisothiazolinone], which “efficacy against pseudomonas aeroginosa” value (pseudomonas aeroginosa) is on record?
The value was “not to be effective”.
